# “And” between values parts separate entries of the source, which are not always exact repeats. Equal values may be shown once.
# Columns and labels:
# [1] = test system: patients with Familial Chylomicronemia Syndrome (FCS); test: Clinical study in FCS patients: hepatic fat (MRI), liver stiffness, NFS and FIB-4 scores; assay type: in vivo, human
# From the text: (§1) Secondary endpoints include other lipid parameters, hepatic fat and liver stiffness and Chylomicron kinetics of Lomitapide in combination with other lipid lowering agents in term of changes at 26 weeks from baseline. Including: • a) Percent change in TC, non-HDL-C, LDL-C, VLDL, Lp(a), as well as apolipoproteins B and A1. • b) Safety of Lomitapide in patients with FCS assessed by changes in laboratory parameters, electrocardiogram, physical examinations and weight. • c) Record of episodes of pancreatitis • d) Change in hepatic fat liver stiffness measured by MRI and/or Transient Elastography (Fibroscan). • e) Chylomicron kinetics.
# Percentage hepatic fat was determined by magnetic resonance imaging (MRI) at baseline and Week 26. The MRI protocol included a dual-phase sequence and the IDEAL IQ sequence. Post-processing software, provided by the manufacturer, was used to generate fat fraction maps. A radiologist trained in abdominal imaging imaged four 1 cm^2 regions of interest (ROIs) to measure in-phase signal intensities of the liver parenchyma. ROIs were copied from the in-phase images to the opposed-phase to ensure identical size and location. Focal hepatic lesions, major branches of portal or hepatic veins, and artifacts were avoided. The mean of the signal intensity of the liver was calculated as the average value of the four signal intensities of the liver parenchyma both in the in-phase and in the opposed phase. The hepatic fat fraction was then calculated with the following formula: 100×(signal intensityIP−signal intensityOP)/(2×signal intensityIP). Finally, ROIs were also copied in the HFF Axial IDEAL IQ map to ensure identical size and location (this map was not available in one patient). The liver ROIs placed on the IDEAL-IQ fat fraction reconstruction were used to generate estimates of percentage fat.
# Noninvasive quantification of liver stiffness (LSM) in kPa (estimated fibrosis score: F0 to F1: 2-7 kPa; F2: 7.5-10 kPa; F3: 10-14 kPa; F4: […]) was measured by ultrasound-based transient elastography using FibroScan® or shear wave elastography. Non-alcoholic fatty liver disease fibrosis score (NFS) and fibrosis-4 (FIB-4) score were calculated according to Angulo et al (2007) (Angulo P, Hui J M, Marchesini G, et al. The NAFLD fibrosis score: a noninvasive system that identifies liver fibrosis in patients with NAFLD. Hepatology 2007; 45(4), which is incorporated by reference herein.
# Numeric parameters were expressed as median values and 97.5% confidence intervals, while dichotomous variables were expressed as proportions. Differences in numeric parameters were evaluated by the Exact Wilcoxon-Mann-Whitney Test (R CRAN “coin” package). Differences in proportions were evaluated by the Chi Square test. Percentual reductions of numeric variables at Week 26 were expressed as median values (with 97.5% confidence intervals) of the individual patients' variations from Week 0. Correlation of TG percent reduction with lomitapide dose was calculated by partial Spearman's correlation adjusting for TG baseline absolute values (R CRAN ‘ppcor’ package). All calculations were performed by the R statistical software Version 4.04 under the RStudio Version 1.3.1093 interface.
# [2] = test system: patients with Familial Chylomicronemia Syndrome (FCS); test: Clinical study of lomitapide in patients with FCS: fasting lipids, lipoproteins, pancreatitis episodes (26 weeks); assay type: in vivo
# From the text: This clinical study evaluated the safety, tolerability, and efficacy of Lomitapide in patients with Familial Chylomicronemia Syndrome (FCS).
# Patients were screened for eligibility between 12 to 6 weeks before the first dose of Lomitapide (screening period). After screening period, all enrolled patients entered a run-in phase of at least 6 weeks during which lipid-lowering therapy, daily dietary supplementation of vitamin E, essential fatty acids and a low-fat diet are instituted and stabilized. At the end of the run-in phase, the patients entered into a 26-week efficacy phase, during which they receive lomitapide in addition to their lipid-lowering therapy. Patients must follow a diet comprising <10% energy from fat per day during all the study.
# All patients who meet the eligibility criteria, and after 6-week diet period (run-in) were treated with Lomitapide 5 mg, 10 mg, 15 mg, 20 mg, 30 mg, 40 mg, 50 mg up to 60 mg daily based on lipid profile and tolerability. Patients remain at their maximum dose until the end of 26 weeks.
# (§2) Treatment was initiated at 5 mg once daily, and the dose titrated based on acceptable safety/tolerability. After a minimum of 2 weeks at 5 mg once daily the dose was then titrated at a minimum of 4-week intervals to 10 mg, 20 mg, 40 mg, and 60 mg/day (e.g., as shown in the table below) or until an individually determined maximum dose (e.g., in the range of 5-60 mg/day) was reached based on lipid profile, and safety/tolerability. Dose adjustments were also made according to liver transaminase levels. If subjects experienced confirmed alanine aminotransferase (ALT) or aspartate aminotransferase (AST) elevations between 3-5×ULN, or >100 U/L but <200 U/L above the baseline value, the dose of lomitapide was reduced to the previously tolerated dose level, with the possibility to re-escalate dose once transaminase elevations were resolved. Once a maximum dose was established, patients remained on this dose up to Week 26.
# (§3) Lipid levels and safety indices, including liver function tests, were evaluated at baseline, before each dose increase, and then every 4 weeks until week 26.
# The Primary Endpoint was percent change in tryglycerides (TG) at the maximum tolerated dose compared to baseline after 26 weeks of treatment in combination with other lipid lowering therapy in patients with Familial Chylomicronemia Syndrome (FCS).
# as §1
# To enable collection of data for the primary and other endpoints a fasting lipid and safety panel, including liver function tests, was obtained at baseline, prior to each dose escalation, and every 4 weeks thereafter until Week 26. Blood was drawn at baseline and at each visit following a 12 hour fast. Testing included a standard metabolic panel, a complete blood count, urinalysis. Ten patients underwent a metabolic study to determine postprandial chylomicron metabolism and fatty acid profile. Available samples were separated by centrifugation and immediately stored at −80° C. and were shipped in dry ice at the end of the study for analysis.
# Lipid and lipoprotein analyses were conducted on serum samples. Total cholesterol (TC), high density lipoprotein-cholesterol (HDL-C), and TGs were measured enzymatically. Non-HDL-C was calculated by subtracting HDL-C levels from TC levels. ApoA-I, apoB and Lp(a) were measured by immunonephelometry. […]
# [3] = test system: patients with Familial Chylomicronemia Syndrome (FCS); test: Clinical study in FCS patients: safety and tolerability (adverse events, liver function tests, maximum dose); assay type: in vivo, human
# Experimental: as §2, §3, §1
# Adverse events (AEs) were coded using MedDRA, Version 11.0. AEs were judged by the investigators as not related, unlikely, possibly, probably or definitely related to study drug and were reviewed regularly by an independent Data and Safety Monitoring Board.
# [4] = 18 subjects, baseline to Week 26
smiles,measurement,setting,value
"O=C(NC1CCN(CCCCC2(C(=O)NCC(F)(F)F)c3ccccc3-c3ccccc32)CC1)c1ccccc1-c1ccc(C(F)(F)F)cc1 [lomitapide, N-(2,2,2-trifluoroethyl)-9-[4-[4-[[[4′(trifluoromethyl) [1,1′-biphenyl]-2-yl]carbonyl]amino]-1-piperidinyl]butyl]-9H-fluorene-9carboxamide]","Hepatic fat content on MRI, median at Week 26","[1]; 9 subjects, Week 26 (baseline 12.0)",32.5%
same,"Hepatic fat content on MRI, individual change from baseline, %","[1]; 9 subjects, baseline to Week 26",+146.4%
same,"LSM (liver stiffness measurement), median at Week 26","[1]; 14 subjects, Week 26 (baseline 5.7)",5.5 kPa
same,"FIB-4, median at Week 26","[1]; 18 subjects, Week 26 (baseline 0.76)",1.03
same,"NFS, median at Week 26","[1]; 18 subjects, Week 26 (baseline 0.786)",0.428
same,"FIB-4, individual change from baseline, %",[1]; [4],+38.44%
same,"NFS, individual change from baseline, %",[1]; [4],−51.69%
same,"non-invasive liver fibrosis measurements (liver stiffness, FIB-4 and NFS scores), change","[1]; baseline to Week 26, in words",No significant changes
same,hepatic fat content at week 26 in 3 patients with an increase,[1]; liver MRI,30-50%
same,episodes of acute pancreatitis or severe abdominal pain during treatment,"[2]; 26 weeks, all patients with history of acute pancreatitis",No patient experienced an episode of acute pancreatitis or severe abdominal pain
same,range of TG decrease in the six subjects with decreases up to 50%,[2]; Week 26,18.25-49.71%
same,reduction in TG levels from baseline,"[2]; Week 26, n=18, p<0.0001",70.5%
same,patients with TG reduction >70%,"[2]; Week 26, nine of 18 patients",50%
same,subjects achieving TG levels <750 mg/dL (<8.5 mmol/L),"[2]; Week 26, of 18",Thirteen
same,subjects with decreases in TG up to 50%,"[2]; Week 26, six of 18 subjects",33.3%
same,patients achieving TG levels <500 mg/dL (<5.6 mmol/L),"[2]; Week 26, ten of 18",55.6%
same,patients with TG reduction >50%,"[2]; Week 26, twelve of 18 patients",66.7%
same,mean dose when patients crossed the threshold of <500 mg/dL triglycerides,[2]; daily dose,27 mg
same,mean dose when patients crossed the threshold of <750 mg/dL triglycerides,[2]; daily dose,24 mg
same,mean dose when patients crossed the threshold of <1000 mg/dL triglycerides,[2]; daily dose,18 mg
same,median dose when patients crossed the threshold of <500 mg/dL triglycerides,[2]; daily dose,20 mg
same,median dose when patients crossed the threshold of <750 mg/dL triglycerides,[2]; daily dose,20 mg
same,median dose when patients crossed the threshold of <1000 mg/dL triglycerides,[2]; daily dose,10 mg
same,"Lp(a) levels, difference from baseline to Week 26",[2]; in words,No significant differences
same,"hsCRP levels, difference from baseline to Week 26",[2]; in words,No significant differences
same,fasting triglyceride levels compared to baseline,"[2]; in words, over 26 weeks",significant reduction
same,patients achieving triglyceride plasma levels <1000 mg/dL,[2]; n=14 of 18,77.8%
same,"hsCRP, median at Week 26","[2]; n=18, Week 26 (baseline 1.2)",1.24 mg/L
same,"Lp(a), median at Week 26","[2]; n=18, Week 26 (baseline 6)",5.5 nmol/L
same,"HDL-C, median at Week 26","[2]; n=18, Week 26 (baseline 16)",18 mg/dL
same,"ApoB, median at Week 26","[2]; n=18, Week 26 (baseline 81.85)",39.25 mg/dL
same,"ApoA-I, median at Week 26","[2]; n=18, Week 26 (baseline 93.7)",74.95 mg/dL
same,"non-HDL-C, median at Week 26","[2]; n=18, Week 26 (baseline 184)",90.0 mg/dL
same,"TC, median at Week 26","[2]; n=18, Week 26 (baseline 205.5)",94 mg/dL
same,"ApoA-I, median of individual changes from baseline %","[2]; n=18, baseline to Week 26",−28.1% and −23.0%
same,"ApoB, median of individual changes from baseline %","[2]; n=18, baseline to Week 26",−43.8%
same,"HDL-C, median of individual changes from baseline %","[2]; n=18, baseline to Week 26",20.7% and +20.7%
same,"Lp(a), median of individual changes from baseline %","[2]; n=18, baseline to Week 26",+40.5%
same,"TC, median of individual changes from baseline %","[2]; n=18, baseline to Week 26",−51.7%
same,"hsCRP, median of individual changes from baseline %","[2]; n=18, baseline to Week 26",9.8%
same,"non-HDL-C, median of individual changes from baseline %","[2]; n=18, baseline to Week 26",−50.0%
same,"TG, median of individual changes from baseline %","[2]; n=18, baseline to Week 26, primary endpoint",−70.5%
same,"TG, median at Week 26","[2]; n=18 FCS patients, fasting, lomitapide at maximum tolerated dose plus lipid-lowering therapy, Week 26 (baseline 1803.5)",305.0 mg/dL
same,patients completing the study (26 weeks),[3]; 18 enrolled,100%
same,elevations in bilirubin or alkaline phosphatase levels,[3]; 26 weeks,No subject experienced elevations
same,tolerability of treatment,"[3]; 26 weeks, in words",well tolerated
same,permanent discontinuation due to liver transaminase elevations,[3]; increases managed by dose reduction or temporary interruption,No subject discontinued treatment permanently
same,median lomitapide maximum dose,"[3]; individually determined by lipid profile, safety and tolerability, by Week 26, 18 subjects",35 mg/day
same,severity of adverse events,[3]; mostly gastrointestinal tolerability and liver enzyme elevations,mild to moderate

# Reference: patent US20240165093A1, “METHODS FOR TREATING FAMILIAL CHYLOMICRONEMIA SYNDROME” (AMRYT PHARMACEUTICALS INC., priority 2021, published 2024)
